Assay results: patent US9006232B2, “Pyrimidone derivatives” (Mitsubishi Tanabe Pharma Corporation, priority 2009, dated 2015)
Where a name gives a salt, the structure may show the parent alone.

Biological target: bovine cerebral TPK1 (Bos taurus, UniProt A0A059UE90)
Assay: Inhibitory activity against P-GS1 phosphorylation by bovine cerebral TPK1
Format: biochemical
Details: P-GS1 phosphorylation, 41.7 μM [γ-32P] ATP, 25° C., 2 hours; read-out: IC50
Method: Inhibitory Activity of the Medicament of the Present Invention Against P-GS1 Phosphorylation by Bovine Cerebral TPK1 […] The phosphorylation was started by adding ATP, and the reaction was conducted at 25° C. for 2 hours, and then stopped by adding 21% perchloric acid on ice cooling. The reaction mixture was centrifuged at 12,000 rpm for 5 minutes and adsorbed on P81 paper (Whatmann), and then the paper was washed four times with 75 mM phosphoric acid, three times with water and once with acetone. The paper was dried, and the residual radioactivity was measured using a liquid scintillation counter.

bovine cerebral TPK1, sequence (A0A059UE90 1-419): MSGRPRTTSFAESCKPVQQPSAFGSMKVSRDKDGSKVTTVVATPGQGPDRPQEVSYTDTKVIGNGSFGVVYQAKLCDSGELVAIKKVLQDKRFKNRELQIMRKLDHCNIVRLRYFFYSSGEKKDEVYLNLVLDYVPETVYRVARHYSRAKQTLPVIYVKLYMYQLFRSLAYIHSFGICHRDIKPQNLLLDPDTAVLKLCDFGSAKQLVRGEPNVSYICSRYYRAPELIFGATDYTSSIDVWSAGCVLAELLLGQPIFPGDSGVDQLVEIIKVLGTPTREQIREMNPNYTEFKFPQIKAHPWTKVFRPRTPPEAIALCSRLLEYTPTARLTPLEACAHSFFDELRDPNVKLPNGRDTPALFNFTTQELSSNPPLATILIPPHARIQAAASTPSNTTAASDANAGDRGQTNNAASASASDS

**Q.** Which IC50 does the source give for `Cn1c(OC2CCN(C(=O)Oc3ccccc3)CC2)nc(-c2ccncn2)cc1=O` [1.112, Phenyl 4-(1-methyl-6-oxo-1,6-dihydro-[4,4′]bipyrimidinyl-2-yloxy) piperidine-1-carboxylate] here?
**A.** 108 nM

**Q.** How did the IC50 turn out when `Cn1c(OC[C@@H]2CCCN2c2ccc(F)cc2)nc(-c2ccncc2F)cc1=O` [2.205, 2-[(2S)-1-(4-Fluoro-phenyl)pyrrolidin-2-ylmethoxy]-6-(3-fluoro-pyridin-4-yl)-3-methyl-3H-pyrimidin-4-one] was run?
**A.** 18.4 nM

**Q.** With `Cn1c(OCCSc2ccccc2)nc(-c2ccncc2)cc1=O` [1.806, 3-Methyl-2-(2-phenylsulfanyl-ethoxy)-6-pyridin-4-yl-3H-pyrimidin-4-one] as the molecule, how does the IC50 read?
**A.** 55 nM

**Q.** How did the IC50 turn out when `CN(C)Cc1ccccc1N1CCC(Oc2nc(-c3ccncn3)cc(=O)n2C)CC1` [1.305, 2-[1-(2-Dimethylaminomethyl-phenyl)piperidin-4-yloxy]-1-methyl-1H-[4,4′]bipyrimidinyl-6-one] was run?
**A.** 58.6 nM

**Q.** With `Cn1c(OCC2CCN(c3ccc(CN4CCCCC4)cc3)CC2)nc(-c2ccncc2F)cc1=O` [1.234, 6-(3-Fluoro-pyridin-4-yl)-3-methyl-2-[1-(4-piperidin-1-ylmethyl-phenyl)piperidin-4-ylmethoxy]-3H-pyrimidin-4-one] as the molecule, how does the IC50 read?
**A.** 15.6 nM

**Q.** For `CC(=O)N1Cc2ccc(N3CCC(Oc4nc(-c5ccncn5)cc(=O)n4C)CC3)cc2C1` [1.230, 2-[1-(2-Acetyl-2,3-dihydro-1H-isoindol-5-yl)piperidin-4-yloxy]-1-methyl-1H-[4,4′]bipyrimidinyl-6-one], which IC50 is on record?
**A.** 154 nM

**Q.** Which IC50 does the source give for `CN1CCN(Cc2ccc([C@H]3CC[C@H](Oc4nc(-c5ccncn5)cc(=O)n4C)CC3)cc2)CC1` [Compound No. 1.903, 1-Methyl-2-{trans-4-[4-(4-methyl-piperazin-1-ylmethyl)phenyl]cyclohexyloxy}-1H-[4,4′] bipyrimidinyl-6-one] here?
**A.** 7.8 nM

**Q.** Which IC50 does the source give for `Cn1c(OC2CCCN(c3cccc(F)c3)C2)nc(-c2ccncn2)cc1=O` (centres unmarked) [1.104, 2-[1-(3-Fluoro-phenyl)piperidin-3-yloxy]-1-methyl-1H-[4,4′] bipyrimidinyl-6-one] here?
**A.** 8.9 nM

**Q.** Which IC50 does the source give for `CN(C)Cc1ccc(C(=O)N2CCC(Oc3nc(-c4ccncn4)cc(=O)n3C)CC2)cc1` [Compound No. 1.601, 2-[1-(4-Dimethylaminomethyl-benzoyl)piperidin-4-yloxy]-1-methyl-1H-[4,4′]bipyrimidinyl-6-one] here?
**A.** 39.8 nM

**Q.** For `Cn1c(OC2CCN(c3cncnc3)CC2)nc(-c2ccncc2F)cc1=O` [1.229, 6-(3-Fluoro-pyridin-4-yl)-3-methyl-2-(1-pyrimidin-5-yl-piperidin-4-yloxy)-3H-pyrimidin-4-one], which IC50 is on record?
**A.** 216 nM

**Q.** For `Cn1c(OC2CCN(c3ccc(CN4CCCC4=O)cc3)CC2)nc(-c2ccncc2F)cc1=O` [1.218, 6-(3-Fluoro-pyridin-4-yl)-3-methyl-2-{1-[4-(2-oxo-pyrrolidin-1-ylmethyl)phenyl]piperidin-4-yloxy}-3H-pyrimidin-4-one], which IC50 is on record?
**A.** 153 nM

**Q.** For `CN1Cc2ccc(N3CCC(Oc4nc(-c5ccncn5)cc(=O)n4C)CC3)cc2C1` [1.226, 1-Methyl-2-[1-(2-methyl-2,3-dihydro-1H-isoindol-5-yl)piperidin-4-yloxy]-1H-[4,4′]bipyrimidinyl-6-one], which IC50 is on record?
**A.** 23.7 nM

**Q.** With `Cn1c(OC[C@H]2CCN(c3ccsc3)C2)nc(-c2ccncn2)cc1=O` [Compound No. 2.207, 1-Methyl-2-[(3S)-1-(thiophen-3-yl)pyrrolidin-3-ylmethoxy]-1H-[4,4]′bipyrimidinyl-6-one] as the molecule, how does the IC50 read?
**A.** 307 nM

**Q.** For `CC1CCCCC1Oc1nc(-c2ccncn2)cc(=O)n1C` (centres unmarked) [Compound No. 1.801, 1-Methyl-2-(2-methyl-cyclohexyloxy)-1H-[4,4′] bipyrimidinyl-6-one], which IC50 is on record?
**A.** 58.1 nM

**Q.** With `Cc1ccc(S(=O)(=O)N2CCC(Oc3nc(-c4ccncn4)cc(=O)n3C)CC2)cc1` [1.111, 1-Methyl-2-[1-(toluene-4-sulfonyl)piperidin-4-yloxy]-1H-[4,4′] bipyrimidinyl-6-one] as the molecule, how does the IC50 read?
**A.** 194 nM

**Q.** How did the IC50 turn out when `Cn1c(OCCc2ccccc2)nc(-c2ccncn2)cc1=O` [2.302, 1-Methyl-2-phenethyloxy-1H-[4,4′]bipyrimidinyl-6-one] was run?
**A.** 160 nM

**Q.** For `Cn1c(OC[C@H]2CCN(c3ccsc3)C2)nc(-c2ccncc2F)cc1=O` [Compound No. 2.206, 6-(3-Fluoro-pyridin-4-yl)-3-methyl-2-[(3S)-1-(thiophen-3-yl)pyrrolidin-3-ylmethoxy]-3H-pyrimidin-4-one], which IC50 is on record?
**A.** 73.2 nM

**Q.** Which IC50 does the source give for `Cn1c(OC2CCN(c3ccc(CN4CCNCC4)cc3)CC2)nc(-c2ccncn2)cc1=O` [Compound No. 1.202, 1-Methyl-2-[1-(4-piperazin-1-ylmethyl-phenyl)piperidin-4-yloxy]-1H-[4,4′]bipyrimidinyl-6-one] here?
**A.** 13 nM

**Q.** For `Cn1c(OC2CCCN(c3ccc(F)cc3)C2)nc(-c2ccncn2)cc1=O` (centres unmarked) [1.105, 2-[1-(4-Fluoro-phenyl)piperidin-3-yloxy]-1-methyl-1H-[4,4′] bipyrimidinyl-6-one], which IC50 is on record?
**A.** 61.4 nM

**Q.** For `Cn1c(OC2CCN(c3ccc(CN4CCOCC4)cc3)CC2)nc(-c2ccncn2)cc1=O` [1.213, 1-Methyl-2-[1-(4-morpholin-4-ylmethyl-phenyl)piperidin-4-yloxy]-1H-[4,4′]bipyrimidinyl-6-one], which IC50 is on record?
**A.** 19.4 nM

**Q.** `Cc1ccccc1N1CCC(Oc2nc(-c3ccncn3)cc(=O)n2C)CC1` [1.206, 1-Methyl-2-(1-o-tolyl-piperidin-4-yloxy)-1H-[4,4′]bipyrimidinyl-6-one] was tested. Which IC50 did it give?
**A.** 59.9 nM

**Q.** `Cn1c(OC2CCN(c3ccccc3)CC2)nc(-c2ccncn2)cc1=O` [1.205, 1-Methyl-2-(1-phenyl-piperidin-4-yloxy)-1H-[4,4′]bipyrimidinyl-6-one] was tested. Which IC50 did it give?
**A.** 37.6 nM

**Q.** `Cn1c(OCCc2ccc(CN3CCCCC3)cc2)nc(-c2ccncc2)cc1=O` [Compound No. 2.401, 3-Methyl-2-[2-(4-piperidin-1-ylmethyl-phenyl)ethoxy]-6-pyridin-4-yl-3H-pyrimidin-4-one dihydrochioride] was tested. Which IC50 did it give?
**A.** 110 nM

**Q.** With `Cn1c(OC2CCCN(c3ccccn3)C2)nc(-c2ccncn2)cc1=O` (centres unmarked) [1.108, 1-Methyl-2-(1-pyridin-2-yl-piperidin-3-yloxy)-1H-[4,4′]bipyrimidinyl-6-one] as the molecule, how does the IC50 read?
**A.** 11.7 nM

**Q.** Which IC50 does the source give for `Cn1c(OC2CCN(c3ccc(CN4CCN(C(=O)OC(C)(C)C)CC4)cc3)CC2)nc(-c2ccncn2)cc1=O` [Compound No. 1.201, tert-Butyl 4-{4-[4-(1-methyl-6-oxo-1,6-dihydro-[4,4′]bipyrimidinyl-2-yloxy)piperidin-1-yl]benzyl}piperazine-1-carboxylate] here?
**A.** 19.1 nM

**Q.** Which IC50 does the source give for `Cn1c(O[C@H]2CC[C@H](c3ccc(CO)cc3)CC2)nc(-c2ccncn2)cc1=O` [Compound No. 1.901, 2-[trans-4-(4-Hydroxymethyl-phenyl)cyclohexyloxy]-1-methyl-1H-[4,4′]bipyrimidinyl-6-one] here?
**A.** 115 nM

**Q.** For `Cn1c(OCCCc2cccnc2)nc(-c2ccncn2)cc1=O` [1.810, 1-Methyl-2-(3-pyridin-3-yl-propoxy)-1H-[4,4′]bipyrimidinyl-6-one], which IC50 is on record?
**A.** 201 nM

**Q.** How did the IC50 turn out when `Cn1c(OC2CCN(c3cccc(CN4CCOCC4)c3)CC2)nc(-c2ccncn2)cc1=O` [1.221, 1-Methyl-2-[1-(3-morpholin-4-ylmethyl-phenyl)piperidin-4-yloxy]-1H-[4,4′]bipyrimidinyl-6-one] was run?
**A.** 31.5 nM

**Q.** For `Cn1c(OCC2CCN(c3ccc(CN4CCCCC4)cc3)CC2)nc(-c2ccncn2)cc1=O` [1.233, 1-Methyl-2-[1-(4-piperidin-1-ylmethyl-phenyl)piperidin-4-ylmethoxy]-1H-[4,4′] bipyrimidinyl-6-one], which IC50 is on record?
**A.** 41.6 nM

**Q.** For `Cn1c(OCC2CCN(c3ccc(CN4CCCCC4)cc3)CC2)nc(-c2ccncc2)cc1=O` [1.232, 3-Methyl-2-[1-(4-piperidin-1-ylmethyl-phenyl)piperidin-4-ylmethoxy]-6-pyridin-4-yl-3H-pyrimidin-4-one], which IC50 is on record?
**A.** 162 nM

**Q.** How did the IC50 turn out when `Cn1c(OC2CCN(c3ccc(CN4CCCCC4)cc3)CC2)nc(-c2ccncc2F)cc1=O` [1.216, 6-(3-Fluoro-pyridin-4-yl)-3-methyl-2-[1-(4-piperidin-1-ylmethyl-phenyl)piperidin-4-yloxy]-3H-pyrimidin-4-one] was run?
**A.** 10.9 nM

**Q.** With `COc1ccc(N2CCCC(Oc3nc(-c4ccncn4)cc(=O)n3C)C2)cc1` (centres unmarked) [1.107, 2-[1-(4-Methoxy-phenyl)piperidin-3-yloxy]-1-methyl-1H-[4,4′]bipyrimidinyl-6-one] as the molecule, how does the IC50 read?
**A.** 98.2 nM

**Q.** Which IC50 does the source give for `Cn1c(OC2CCCN(S(=O)(=O)c3ccccc3)C2)nc(-c2ccncn2)cc1=O` (centres unmarked) [1.109, 2-(1-Benzenesulfonyl-piperidin-3-yloxy)-1-methyl-1H-[4,4′] bipyrimidinyl-6-one] here?
**A.** 76.1 nM

**Q.** How did the IC50 turn out when `Cn1c(OC2CCN(CCC3CCNCC3)CC2)nc(-c2ccncn2)cc1=O` [Compound No. 1.501, 1-Methyl-2-[1-(2-piperidin-4-yl-ethyl)piperidin-4-yloxy]-1H-[4,4′] bipyrimidinyl-6-one] was run?
**A.** 69 nM

**Q.** Which IC50 does the source give for `CN(C)Cc1ccc(CCOc2nc(-c3ccncc3)cc(=O)n2C)cc1` [Compound No. 2.402, 2-[2-(4-Dimethylaminomethyl-phenyl)ethoxy]-3-methyl-6-pyridin-4-yl-3H-pyrimidin-4-one dihydrochloride] here?
**A.** 150 nM

**Q.** For `Cn1c(OC2CCN(c3ccc(CN4CCCC4)cc3)CC2)nc(-c2ccncn2)cc1=O` [1.217, 1-Methyl-2-[1-(4-pyrrolidin-1-ylmethyl-phenyl)piperidin-4-yloxy]-1H-[4,4′]bipyrimidinyl-6-one], which IC50 is on record?
**A.** 12 nM

**Q.** Which IC50 does the source give for `CCCCCCc1ccc(Oc2nc(-c3ccncn3)cc(=O)n2C)cc1` [Compound No. 2.001, 2-(4-Hexylphenoxy)-1-methyl-1H[4,4′]bipyrimidinyl-6one] here?
**A.** 429 nM

**Q.** With `Cn1c(OC2CCN(c3ccccc3CN3Cc4ccccc4C3)CC2)nc(-c2ccncn2)cc1=O` [1.304, 2-{1-[2-(1,3-Dihydro-isoindol-2-ylmethyl)phenyl]piperidin-4-yloxy}-1-methyl-1H-[4,4′] bipyrimidinyl-6-one] as the molecule, how does the IC50 read?
**A.** 25.2 nM
